From US8367718B2, “Epigallocatechin gallate trimer and α-glucosidase inhibitor containing epigallocatechin gallate polymer” (Suntory Holdings Limited, priority 2008, dated 2013)
pIC50: −log10 of the molar value. Entries after “also recorded” stand apart in the source; their conditions may differ. Blank lines part the entries; values can stand above or below the molecule they belong to.

Columns and labels:
maltase = conditions: background art, literature values; read-out: maltase inhibitory activity IC50; cited from earlier work
α-glucosidase = test: Alpha-glucosidase inhibitory activity of EGCG polymers (p-nitrophenyl-α-D-glucopyranoside substrate, A405 nm); format: biochemical; conditions: for α-glucosidase inhibitory activity (in words): qualitative statement; for inhibitory activity relative to the EGCG monomer: α-glucosidase, compared with EGCG monomer
Procedure: A […] sodium phosphate buffer solution was prepared by blending 0.1 M NaH2PO4.2H2O and 0.1M Na2HPO4.12H2O and the pH was adjusted to 7.0. To this, 2 g/L bovine serum albumin (F-V, manufactured by Nacalai Tesque Inc., pH 5.2, purity 96%) and 0.2 g/L NaN3 (manufactured by Nacalai Tesque Inc., special grade reagent) were added. An enzyme solution was prepared by dissolving α-glucosidase (manufactured by Wako Pure Chemical Industries Ltd., derived from yeast, 100 units/mg) in the above buffer solution so as to obtain 0.5 units/mg protein /ml (100 μg/20 ml). A substrate solution was prepared by dissolving p-nitrophenyl-α-D-glucopyranoside (manufactured by Nacalai Tesque Inc., special grade reagent) in the buffer solution so as to obtain 5 mM (7.525 mg/5 ml).
Of the samples used for evaluation, theasinensin (TSN)-A and TSN-D were synthesized in accordance with the paper (Hashimoto, F. Nonaka, G. Nishioka, I. Chem. Pharm. Bull. 36 (5), 1676-1684 (1988)) and oolongtheanin-gallate (hereinafter referred to as “OTNG”) were synthesized in accordance with the method described in the paper of J. Agric. Food Chem. 53, 4593-4598 (2005).
These samples were prepared so as to satisfy 10 mg/ml DMSO and serially diluted 6 times by doubling dilution. Using a 96-well microplate, enzyme solution (45 μL) was added to a sample solution (10 μL) and pre-incubated at 37° C. for 5 minutes. Thereafter, the substrate solution (45 μL) was added and absorbance was measured at A 405 nm. After incubation was performed at 37° C. for 5 minutes, absorbance was measured at A 405 nm. The inhibition rate was calculated as a difference from the absorbance at A405 nm of a control, which contains DMSO alone in place of a sample. Each activity measurement was performed twice.

Molecule: 3-sophoroside-5-glucoside of peonidin
- pIC50 (maltase): 3.70

Molecule: O=C(O[C@@H]1Cc2c(O)cc(O)cc2O[C@@H]1c1cc(O)c(O)c(O)c1-c1c([C@H]2Oc3cc(O)cc(O)c3C[C@H]2OC(=O)c2cc(O)c(O)c(O)c2)cc(O)c(O)c1O)c1cc(O)c(O)c(O)c1 (single isomer, unassigned) [TSN-A, theasinensin A]
- pIC50 (maltase): 3.85

- α-glucosidase inhibitory activity (in words) (α-glucosidase): strong α-glucosidase inhibitory activity
Molecule: O=C(O[C@@H]1Cc2c(O)cc(O)cc2O[C@@H]1c1cc(O)c(O)c(O)c1-c1c([C@H]2Oc3cc(O)cc(O)c3C[C@H]2OC(=O)c2cc(O)c(O)c(O)c2)cc(O)c(O)c1O)c1cc(O)c(O)c(O)c1 (single isomer, unassigned) [TSN-D, theasinensin-D]

- α-glucosidase inhibitory activity (in words) (α-glucosidase): strong α-glucosidase inhibitory activity
Molecule: O=C(O[C@@H]1Cc2c(cc(O)c(Cc3c(O)cc(O)c4c3O[C@H](c3cc(O)c(O)c(O)c3)[C@H](OC(=O)c3cc(O)c(O)c(O)c3)C4)c2O)O[C@@H]1c1cc(O)c(O)c(O)c1)c1cc(O)c(O)c(O)c1 [OHBF-B, oolong homobisflavan-B]

- α-glucosidase inhibitory activity (in words) (α-glucosidase; listed as Oolong homobisflavan-tetramer-1): particularly strong activities
- inhibitory activity relative to the EGCG monomer (α-glucosidase): 10 times
Molecule: O=C(OC1Cc2c(O)cc(O)c(Cc3c(O)c(Cc4c(O)c(Cc5c(O)cc(O)c6c5OC(c5cc(O)c(O)c(O)c5)C(OC(=O)c5cc(O)c(O)c(O)c5)C6)c5c(c4O)CC(OC(=O)c4cc(O)c(O)c(O)c4)C(c4cc(O)c(O)c(O)c4)O5)c4c(c3O)CC(OC(=O)c3cc(O)c(O)c(O)c3)C(c3cc(O)c(O)c(O)c3)O4)c2OC1c1cc(O)c(O)c(O)c1)c1cc(O)c(O)c(O)c1 [OHBF-tetramer-1, (2R,3R)-8-(H2R,3R)-8-(((2R,3R)-8-(((2R,3R)-5,7-dihydroxy-3-(3,4,5-trihydroxybenzoyloxy)-2-(3,4,5-trihydroxyphenyl)chroman-8-yl)methyl)-5,7-dihydroxy-3-(3,4,5-trihydroxybenzoyloxy)-2-(3,4,5-trihydroxyphenyl)chroman-6-yl)methyl)-5,7-dihydroxy-3-(3,4,5-trihydroxybenzoyloxy)-2-(3,4,5-trihydroxyphenyl)chroman-6-yl)methyl)-5,7-dihydroxy-2-(3,4,5-trihydroxyphenyl)chroman-3-yl 3,4,5-trihydroxybenzoate]
- α-glucosidase inhibitory activity (in words) (α-glucosidase; listed as oolong homobisflavan-tetramer-1): significant inhibitory activity; also recorded: high activity

- α-glucosidase inhibitory activity (in words) (α-glucosidase): significant inhibitory activity
Molecule: O=C(OC1Cc2c(O)cc(O)c(Cc3c(O)c(Cc4c(O)c(Cc5c(O)cc(O)c6c5OC(c5cc(O)c(O)c(O)c5)C(OC(=O)c5cc(O)c(O)c(O)c5)C6)c(O)c5c4OC(c4cc(O)c(O)c(O)c4)C(OC(=O)c4cc(O)c(O)c(O)c4)C5)c4c(c3O)CC(OC(=O)c3cc(O)c(O)c(O)c3)C(c3cc(O)c(O)c(O)c3)O4)c2OC1c1cc(O)c(O)c(O)c1)c1cc(O)c(O)c(O)c1 [OHBF-tetramer-2, (2R,2′R,3R,3′R)-8,8′-(2R,2′R,3R,3′R)-8,8′-methylenebis(5,7-dihydroxy-3-(3,4,5-trihydroxybenzoyloxy)-2-(3,4,5-trihydroxyphenyl)chroman-8,6-diyl)bis(methylene)bis(5,7-dihydroxy-2-(3,4,5-trihydroxyphenyl)chroman-8,3-diyl) bis(3,4,5-trihydroxybenzoate)]

- α-glucosidase inhibitory activity (in words) (α-glucosidase): significant inhibitory activity
Molecule: O=C(O[C@@H]1Cc2c(cc(O)c(Cc3c(O)c(Cc4c(O)cc(O)c5c4O[C@H](c4cc(O)c(O)c(O)c4)[C@H](OC(=O)c4cc(O)c(O)c(O)c4)C5)c(O)c4c3O[C@H](c3cc(O)c(O)c(O)c3)[C@H](OC(=O)c3cc(O)c(O)c(O)c3)C4)c2O)O[C@@H]1c1cc(O)c(O)c(O)c1)c1cc(O)c(O)c(O)c1 [OHBF-trimer-2, (2R,3R)-8-(((2R,3R)-8-(((2R,3R)-5,7-dihydroxy-3-(3,4,5-trihydroxybenzoyloxy)-2-(3,4,5-trihydroxyphenyl)chroman-6-yl)methyl)-5,7-dihydroxy-3-(3,4,5-trihydroxybenzoyloxy)-2-(3,4,5-trihydroxyphenyl)chroman-6-yl)methyl)-5,7-dihydroxy-2-(3,4,5-trihydroxyphenyl)chroman-3-yl 3,4,5-trihydroxybenzoate]

- inhibitory activity relative to the EGCG monomer (α-glucosidase): 10 times
Molecule: O=C(O[C@@H]1Cc2c(cc(O)c(Cc3c(O)c(Cc4c(O)cc(O)c5c4O[C@H](c4cc(O)c(O)c(O)c4)[C@H](OC(=O)c4cc(O)c(O)c(O)c4)C5)c4c(c3O)C[C@@H](OC(=O)c3cc(O)c(O)c(O)c3)[C@@H](c3cc(O)c(O)c(O)c3)O4)c2O)O[C@@H]1c1cc(O)c(O)c(O)c1)c1cc(O)c(O)c(O)c1 [OHBF-trimer-4, (2R,3R)-8-(((2R,3R)-6-(((2R,3R)-5,7-dihydroxy-3-(3,4,5-trihydroxybenzoyloxy)-2-(3,4,5-trihydroxyphenyl)chroman-6-yl)methyl)-5,7-dihydroxy-3-(3,4,5-trihydroxybenzoyloxy)-2-(3,4,5-trihydroxyphenyl)chroman-8-yl)methyl)-5,7-dihydroxy-2-(3,4,5-trihydroxyphenyl)chroman-3-yl 3,4,5-trihydroxybenzoate]
- α-glucosidase inhibitory activity (in words) (α-glucosidase; listed as oolong homobisflavan-trimer-4): particularly strong activities; also recorded: significant inhibitory activity; also recorded: high activity
